Results reported in publication PMC9849758, “Chemically diverse activity-based probes with unexpected inhibitory mechanisms targeting trypsin-like serine proteases” (Frontiers in Chemistry, 2023).
Entries after “also recorded” stand apart in the source; their conditions may differ. Counter-ions that a name gives are not always drawn.

Experiments:
Format in all cases: biochemical
[1] = biological target: T1, β-tryptase (Homo sapiens, UniProt P20231); assay: Kinetic progress curves (kapp, K1, KI*, mechanism); design: purchased EnzoLife Sciences; conditions: for β-tryptase mechanism of inhibition: defined by the progress curves: slow-binding (Rev.) or irreversible (Irrev.); for β-tryptase kapp: apparent second-order rate constant from progress curves; for β-tryptase kapp / Ki: mean ± SD
Experimental: (§1) Because the compounds described in this paper were previously described as irreversible inhibitors, the IC50 value is inversely correlated with the second-order rate constant of inactivation. For a simple pseudo-first-order inactivation process, the activity after incubation with inhibitor (vi) varies with the inhibitor concentration (i), as described in the following equation: vi=v0·e^−kit where v0 is the activity in the absence of an inhibitor, k is the second-order rate constant of inactivation, and t is the time. The inactivation rate constant was determined from the time course of inhibition.
(§2) Kinetic assays were performed in the following manner. The inhibitor was mixed with the substrate, and the buffer solution with the enzyme was added at the time zero. The progress curves show the release of pNA or AMC as a function of time. Initially, no inhibitor is bound to the enzyme, and the tangent to the progress curve (dA/dt) is proportional to the free enzyme concentration. The free enzyme concentration decreases over time due to inhibitor binding kinetics, as described above. Progress curves were recorded in pseudo-first-order conditions ([I]0>>[E]0) and with less than 10% conversion of the substrate during the entire time course. In these conditions, dA/dt decreases exponentially with time. The progress curves were fitted with the integrated rate equation with GraFit7 to yield a value for kobs, a pseudo-first-order rate constant. At=Ao+vs∙t+vi−vs∙1−e^−kobs∙t/kobs where At is the absorbance at time t, A0 is the absorbance at time zero, vi is the initial rate and vs is the velocity at the steady-state.
(§3) The apparent second-order rate constant (kapp) was calculated from the slope of the linear part of the plot of kobs vs. the inhibitor concentration ([I]0). In the case of competition between the inhibitor and the substrate, kapp is smaller than the “real” second-order rate constant k discussed above because a certain fraction of the enzyme is present as an enzyme-substrate complex. kapp depends on the substrate concentration used in the experiment, as described by [Lambeir et al. (1996)].
(§4) The apparent equilibrium constants were obtained from the following equations, vi/vo=1/1+I/K1; vS/vo=1/1+I/KI* where vi is the initial rate, vs is the steady-state velocity and vo is the uninhibited initial rate.

[2] = biological target: T1, β-tryptase; assay: Jump dilution, determination of inhibition type; design: purchased EnzoLife Sciences; conditions: inhibitor at 10 times IC50, 15 min, diluted 10-fold or 100-fold; Rev./Irrev.
Experimental: The dissociation of the enzyme-inhibitor complex was monitored by substrate hydrolysis over time ([Joossens et al., 2006]).
Because ABPs are designed to be irreversible serine protease inhibitors, the IC50 is exclusively used as a first discriminatory evaluation. When an inhibitor is irreversible, its IC50 value not only depends on the substrate and enzyme concentration but also on the time of incubation with the enzyme before the reaction is started by adding the substrate. […] The progress curve in the presence of an irreversible inhibitor will show final velocities equal to zero (Figure 6C). In contrast, for a reversible inhibitor, progress curves have a non-zero final steady-state velocity (Figure 6A) ([McWhirter, 2021]). To corroborate the inhibitory mechanism of the compounds, jump-dilution assays were performed. These use an inhibitor concentration of 10-fold the IC50 for the incubation, and a posteriori, the reaction mixture is diluted 10-fold or 100-fold before adding the substrate. In the case of an irreversible inhibitor, enzymatic activity is not regained (Figure 6D), whereas, in the case of a reversible compound, a slow release of the inhibitor and a gradual increase of the enzymatic activity rate is observed (Figure 6B) ([Copeland, 2013]; [McWhirter, 2021]). The jump-dilution assays confirmed the behavior described by the progress curves.
2.2.2 Jump dilution results
Supplementary Table 2. Jump dilution of selected alkyne and desthiobiotin probes against a panel of trypsin-like serine proteases. […]
# R R DtBa 3 tryptase Thrombin uPA CatG
32b H Alk Irrev. Irrev. Rev. Irrev. Rev.
45b DtB Irrev. Irrev. Rev. N.D. N.D.
33b Alk Irrev. Irrev. Rev. Irrev. Rev.
46b Cl DtB Irrev. Irrev. Rev. N.D. N.D.
34b H Alk Rev. Rev. Rev. Irrev. Rev.
50b DtB Rev. Rev. Rev. Irrev. Rev.
35b Alk Rev. Rev. Rev. Irrev. Rev.
52b NHCOMe DtB Rev. Rev. Rev. Irrev. Rev.
36b Alk Rev. Rev. Rev. Irrev. Rev.
54b Cl DtB Rev. Rev. Rev. Irrev. Rev.
37b Alk Irrev. Irrev. N.D. Irrev. Irrev.
55b H DtB Irrev. Irrev. N.D. Irrev. Irrev.
38b Alk Irrev. Irrev. N.D. Irrev. Irrev.
56b NHCOMe DtB Irrev. Irrev. N.D. Irrev. Irrev.
39b Alk Irrev. Irrev. N.D. Irrev. Rev.
57b Cl DtB Irrev. Irrev. N.D. Irrev. Rev.
41b H Alk Irrev. Irrev. Irrev. N.D. N.D.
31b Pro-Lys H Alk Irrev. Irrev. Irrev. Irrev. N.D. a Alk: ABP precursor bearing an alkyne; DtB: desthiobiotin probe b Panel of serine proteases abbreviations: urokinase plasminogen activator (uPA), cathepsin G (catG) N.D.: IC50 is greater than 10µM, and jump dilution was not performed
2.2.3 Progress curves and Jump dilution experiments
Kinetic assays were performed in the following manner. The inhibitor was mixed with the substrate, and the buffer solution with the enzyme was added at the time zero. The progress curves show the release of para-nitroaniline (pNA) or 7-amino-4-methyl coumarin (AMC) as a function of time.
To monitor the dissociation of the inhibitor-enzyme, aliquots of the enzyme were incubated at 37 °C without and with the inhibitor at a concentration 10 times higher than its IC 50. The enzyme […]
min, the aliquots were diluted 10-fold or 100-fold into the substrate concentration and assay buffer used for the IC50 determination. The dissociation of the enzyme-inhibitor complex was monitored by substrate hydrolysis over time. Blue lines represent the control where no inhibitor was present. Pink lines represent the assay with inhibitor.

[3] = biological target: T2, CatG (Homo sapiens, UniProt P08311); assay: Kinetic progress curves (kapp, mechanism); design: Cathepsin G (cathepsin G human neutrophil, Sigma-Aldrich); purchased Sigma-Aldrich; host or cells: human neutrophil; conditions: for CatG mechanism of inhibition: defined by the progress curves: slow-binding (Rev.) or irreversible (Irrev.); for CatG kapp: apparent second-order rate constant from progress curves, mean ± SD
T2 sequence (P08311 21-255): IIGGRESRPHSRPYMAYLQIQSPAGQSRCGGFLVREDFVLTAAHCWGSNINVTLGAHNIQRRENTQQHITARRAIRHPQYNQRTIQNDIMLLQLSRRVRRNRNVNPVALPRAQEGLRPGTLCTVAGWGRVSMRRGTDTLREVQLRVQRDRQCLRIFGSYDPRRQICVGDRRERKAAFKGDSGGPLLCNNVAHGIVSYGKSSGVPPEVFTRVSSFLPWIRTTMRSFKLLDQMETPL
Experimental: as §1, §2, §3, §4

[4] = β-tryptase K1, apparent equilibrium constant of the first step of slow-binding
[5] = β-tryptase KI*, apparent equilibrium constant of the overall process

T1 sequence (P20231 31-275): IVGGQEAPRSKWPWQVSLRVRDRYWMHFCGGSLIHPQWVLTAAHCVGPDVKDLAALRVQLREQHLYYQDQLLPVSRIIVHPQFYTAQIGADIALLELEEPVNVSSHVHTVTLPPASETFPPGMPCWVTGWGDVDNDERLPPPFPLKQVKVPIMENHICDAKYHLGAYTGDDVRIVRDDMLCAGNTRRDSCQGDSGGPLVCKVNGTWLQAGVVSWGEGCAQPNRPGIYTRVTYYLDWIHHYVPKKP

| Compound | β-tryptase mechanism of inhibition [1] | β-tryptase jump dilution result [2] | CatG mechanism of inhibition [3] | β-tryptase kapp [1] | Ki [1, 4] [nM] | Ki [1, 5] [nM] | CatG kapp [3] |
| --- | --- | --- | --- | --- | --- | --- | --- |
| C#CCCCOC(=O)NC(c1ccc(NC(=N)N)cc1)P(=O)(Oc1ccc(Cl)cc1)Oc1ccc(Cl)cc1 (centres unmarked) [39b, Pent-4-yn-1-yl ((bis(4-chlorophenoxy)phosphoryl)(4-guanidinophenyl)methyl)carbamate] | irreversible; also recorded: Irrev | Irrev. | reversibly and Rev. | – | – | – | – |
| CC(=O)Nc1ccc(OP(=O)(Oc2ccc(NC(C)=O)cc2)C(Cc2ccc(NC(=N)N)cc2)NC(=O)OCCCc2cn(CCOCCOCCOCCNC(=O)CCCCC[C@H]3NC(=O)N[C@H]3C)nn2)cc1 (some centres unmarked) [52b] | Reversible and Rev. | Rev. and Reversible | * ^d Rev. | 18 × 10^3 ± 1184 M^−1 s^−1 | 680 ± 70 | 60 ± 3 | – |
| CC(=O)Nc1ccc(OP(=O)(Oc2ccc(NC(C)=O)cc2)C(NC(=O)OCCCc2cn(CCOCCOCCOCCNC(=O)CCCCC[C@H]3NC(=O)N[C@H]3C)nn2)c2ccc(NC(=N)N)cc2)cc1 (some centres unmarked) [56b] | Irreversible; also recorded: Irrev | Irrev; also recorded: Irreversible | Irrev. | 321 ± 2 M⁻¹ s⁻¹ | – | – | 420 ± 37 M⁻¹ s⁻¹ |
| C#CCCCOC(=O)NC(c1ccc(NC(=N)N)cc1)P(=O)(Oc1ccc(NC(C)=O)cc1)Oc1ccc(NC(C)=O)cc1 (centres unmarked) [38b, Pent-4-yn-1-yl ((bis(4-acetamidophenoxy)phosphoryl)(4-guanidinophenyl)methyl) carbamate] | Irrev. | Irrev. | Irrev. | 20 × 10^2 ± 54 M^−1 s^−1 | – | – | 14 × 10^2 ± 52 M^−1 s^−1 |
| C#CCCCOC(=O)NC(Cc1ccc(NC(=N)N)cc1)P(=O)(Oc1ccccc1)Oc1ccccc1 (centres unmarked) [34b] | Rev. | Rev. | * ^d Rev. | 712 ± 41 M⁻¹ s⁻¹ | 15800 ± 5000 | 1110 ± 90 | – |
| C#CCCCOC(=O)NC(CCCNC(=N)N)P(=O)(Oc1ccc(Cl)cc1)Oc1ccc(Cl)cc1 (centres unmarked) [33b] | irreversibility; also recorded: irreversible; also recorded: Irrev | Irrev. | * ^d Rev. | 28 × 10^2 ± 82 M^−1 s^−1 | – | – | – |
| C[C@@H]1NC(=O)N[C@@H]1CCCCCC(=O)NCCOCCOCCOCCn1cc(CCCOC(=O)NC(CCCNC(=N)N)P(=O)(Oc2ccccc2)Oc2ccccc2)nn1 (some centres unmarked) [45b] | Irrev. | Irrev. | – | 237 ± 42 M⁻¹ s⁻¹ | – | – | – |
| C[C@@H]1NC(=O)N[C@@H]1CCCCCC(=O)NCCOCCOCCOCCn1cc(CCCOC(=O)NC(c2ccc(NC(=N)N)cc2)P(=O)(Oc2ccc(Cl)cc2)Oc2ccc(Cl)cc2)nn1 (some centres unmarked) [57b] | Irrev. | Irrev. | reversibly and Rev. | 65 × 10^2 ± 1,203 M^−1 s^−1 | – | – | 11 × 10^2 ± 117 M^−1 s^−1 |
| C[C@@H]1NC(=O)N[C@@H]1CCCCCC(=O)NCCOCCOCCOCCn1cc(CCCOC(=O)NC(Cc2ccc(NC(=N)N)cc2)P(=O)(Oc2ccccc2)Oc2ccccc2)nn1 (stereo partly drawn) [50b, 3-(1-(18-((4R,5S)-5-methyl-2-oxoimidazolidin-4-yl)-13-oxo-3,6,9-trioxa-12-azaoctadecyl)-1H-1,2,3-triazol-4-yl)propyl (1-(diphenoxyphosphoryl)-2-(4-guanidinophenyl)ethyl)carbamate trifluoroacetate salt] | Rev. | Rev. | * ^d Rev. | 32 × 10^2 ± 613 M^−1 s^−1 | 3280 ± 500 | 410 ± 30 | – |
| C#CCCCOC(=O)NC(C1CCN(C(=N)N)CC1)P(=O)(Oc1ccccc1)Oc1ccccc1 (centres unmarked) [41b] | irreversible inhibition; also recorded: Irrev | Irrev. | – | 27 ± 2 M⁻¹ s⁻¹ | – | – | – |
| C[C@@H]1NC(=O)N[C@@H]1CCCCCC(=O)NCCOCCOCCOCCn1cc(CCCOC(=O)NC(CCCNC(=N)N)P(=O)(Oc2ccc(Cl)cc2)Oc2ccc(Cl)cc2)nn1 (some centres unmarked) [46b] | Irrev. | Irrev. | – | 75 × 10^2 ± 1475 M^−1 s^−1 | – | – | – |
| C#CCCCOC(=O)NC(Cc1ccc(NC(=N)N)cc1)P(=O)(Oc1ccc(Cl)cc1)Oc1ccc(Cl)cc1 (centres unmarked) [36b] | reversible and Rev. | Rev. | * ^d Rev. | 61 × 10^3 ± 6860 M^−1 s^−1 | 340 ± 70 | 90 ± 10 | – |
| C[C@@H]1NC(=O)N[C@@H]1CCCCCC(=O)NCCOCCOCCOCCn1cc(CCCOC(=O)NC(c2ccc(NC(=N)N)cc2)P(=O)(Oc2ccccc2)Oc2ccccc2)nn1 (some centres unmarked) [55b] | Irrev. | Irrev. | Irrev. | 347 ± 19 M⁻¹ s⁻¹ | – | – | 301 ± 85 M⁻¹ s⁻¹ |
| C[C@@H]1NC(=O)N[C@@H]1CCCCCC(=O)NCCOCCOCCOCCn1cc(CCCOC(=O)NC(Cc2ccc(NC(=N)N)cc2)P(=O)(Oc2ccc(Cl)cc2)Oc2ccc(Cl)cc2)nn1 (some centres unmarked) [54b] | reversible slow-binding mechanism; also recorded: * ^d Rev | Rev. | * ^d Rev. | – | 130 ± 30 | 20 ± 1 | – |
